Laboratory results from patent publication US20050282743A1, “Molecular interactions in cells” (Arbor Vita Corporation, priority 2001, published 2005).
Like-named read-outs stand apart in the source and are kept apart here. Each block holds one compound with its values, some of them ahead of it. Ends that are not written are not given here. Peptide text beside a SMILES is read from it. * marks the point of attachment. Biotin = O=C1N[C@H]2[C@H](CS[C@H]2CCCCC(=O)*)N1

Key:
Type in all cases: binding
[1] = biological target: T1, PDZ-domain polypeptide (GST/PDZ fusion protein) (Homo sapiens, UniProt Q9NRD5); experiment: Apparent affinity (Kd) by titration of PL peptide in the G assay; details: PDZ PICK1, PDZ Domain 1
T1 construct: made in house; host or cells: E. coli (DH5alpha, BL21 or JM109)
T1 sequence (Q9NRD5 whole entry, the tested form may be a part): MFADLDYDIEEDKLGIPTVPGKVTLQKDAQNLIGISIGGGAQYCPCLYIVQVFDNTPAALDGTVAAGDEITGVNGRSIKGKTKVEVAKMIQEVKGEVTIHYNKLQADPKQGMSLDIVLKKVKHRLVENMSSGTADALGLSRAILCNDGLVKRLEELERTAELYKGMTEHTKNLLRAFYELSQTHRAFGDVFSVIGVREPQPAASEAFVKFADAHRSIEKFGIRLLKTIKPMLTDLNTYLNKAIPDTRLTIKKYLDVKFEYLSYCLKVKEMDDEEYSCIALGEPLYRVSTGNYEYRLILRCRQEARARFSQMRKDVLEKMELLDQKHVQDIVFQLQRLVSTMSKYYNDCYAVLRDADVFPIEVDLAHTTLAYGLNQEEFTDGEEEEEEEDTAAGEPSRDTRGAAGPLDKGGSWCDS
Summary of the method: (§1)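 A fixed concentration of GST/PDZ fusion protein, 5 ug/ml by default, was mixed in solution with increasing labeled PL peptide (e.g. 0.1 uM-1 mM). Reaction times ranged from 10 minutes to 2 days at 4-37° C. Complexes were separated from free peptide and detected via the label as in the G assay, apparent affinity coming from the saturating concentration.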

[2] = biological target: T2, PDZ protein (GST-PDZ fusion) (Homo sapiens, UniProt Q9H6Y5); experiment: G' assay (10 uM PL peptide), results of TABLE 7 and TABLE 12; details: PDZ FLJ21687, PDZ Domain 1
T2 construct: made in house; host or cells: E. coli (DH5alpha, BL21 or JM109)
T2 sequence (Q9H6Y5 1-334): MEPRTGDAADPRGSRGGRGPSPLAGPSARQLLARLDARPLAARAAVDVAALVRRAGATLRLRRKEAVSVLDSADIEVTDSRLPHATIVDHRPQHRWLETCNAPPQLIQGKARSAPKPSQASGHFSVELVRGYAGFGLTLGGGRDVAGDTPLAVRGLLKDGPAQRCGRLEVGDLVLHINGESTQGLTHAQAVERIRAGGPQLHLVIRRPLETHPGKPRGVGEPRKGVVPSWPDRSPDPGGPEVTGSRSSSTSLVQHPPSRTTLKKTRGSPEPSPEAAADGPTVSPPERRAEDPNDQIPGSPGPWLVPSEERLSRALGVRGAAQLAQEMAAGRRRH
Summary of the method: (§2)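 Biotinylated PL peptides at 10 uM (vs 20 uM in G^0 assay) bound to GST-PDZ fusions; PDZ protein at 5 ug/ml unless another concentration listed. Bound peptide read as A450 nm, classified 0–5 (0 = A450 0; 5 = A450 >4 repeated).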

[3] = biological target: T3, PDZ-domain polypeptide (GST/PDZ fusion protein) (Homo sapiens, UniProt Q12959); experiment: Apparent affinity (Kd) by titration of PL peptide in the G assay
T3 construct: made in house; host or cells: E. coli (DH5alpha, BL21 or JM109)
T3 sequence (Q12959 whole entry, the tested form may be a part): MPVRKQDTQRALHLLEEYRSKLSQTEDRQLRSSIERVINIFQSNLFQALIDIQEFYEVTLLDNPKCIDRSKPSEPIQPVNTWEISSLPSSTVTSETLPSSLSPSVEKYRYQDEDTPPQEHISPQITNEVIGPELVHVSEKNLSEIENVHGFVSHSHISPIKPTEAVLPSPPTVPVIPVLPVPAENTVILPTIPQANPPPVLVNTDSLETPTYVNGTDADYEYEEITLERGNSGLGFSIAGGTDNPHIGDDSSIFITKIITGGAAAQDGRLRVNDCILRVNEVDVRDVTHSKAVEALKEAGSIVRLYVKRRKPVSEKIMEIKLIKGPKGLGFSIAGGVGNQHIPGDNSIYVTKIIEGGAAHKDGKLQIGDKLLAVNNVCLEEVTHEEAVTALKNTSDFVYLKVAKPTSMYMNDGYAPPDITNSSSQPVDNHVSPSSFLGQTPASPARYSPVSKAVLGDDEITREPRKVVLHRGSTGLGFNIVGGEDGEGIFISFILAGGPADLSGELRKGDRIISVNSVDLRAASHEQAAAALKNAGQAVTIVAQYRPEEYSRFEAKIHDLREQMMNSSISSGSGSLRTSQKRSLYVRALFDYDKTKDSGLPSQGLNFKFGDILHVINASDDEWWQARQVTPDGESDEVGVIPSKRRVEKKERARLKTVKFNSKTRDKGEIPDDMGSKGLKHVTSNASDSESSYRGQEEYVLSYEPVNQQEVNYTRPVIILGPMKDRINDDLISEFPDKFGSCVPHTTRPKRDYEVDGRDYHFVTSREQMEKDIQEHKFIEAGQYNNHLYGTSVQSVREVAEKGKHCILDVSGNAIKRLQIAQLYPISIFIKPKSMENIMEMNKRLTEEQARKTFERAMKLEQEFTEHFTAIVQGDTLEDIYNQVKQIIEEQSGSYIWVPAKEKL
Summary of the method: as §1

[4] = biological target: T4, PDZ-domain polypeptide (GST/PDZ fusion protein) (Homo sapiens, UniProt Q15700); experiment: as above; details: PDZ DLG2, PDZ Domain 2
T4 construct: made in house; host or cells: E. coli (DH5alpha, BL21 or JM109)
T4 sequence (Q15700 whole entry, the tested form may be a part): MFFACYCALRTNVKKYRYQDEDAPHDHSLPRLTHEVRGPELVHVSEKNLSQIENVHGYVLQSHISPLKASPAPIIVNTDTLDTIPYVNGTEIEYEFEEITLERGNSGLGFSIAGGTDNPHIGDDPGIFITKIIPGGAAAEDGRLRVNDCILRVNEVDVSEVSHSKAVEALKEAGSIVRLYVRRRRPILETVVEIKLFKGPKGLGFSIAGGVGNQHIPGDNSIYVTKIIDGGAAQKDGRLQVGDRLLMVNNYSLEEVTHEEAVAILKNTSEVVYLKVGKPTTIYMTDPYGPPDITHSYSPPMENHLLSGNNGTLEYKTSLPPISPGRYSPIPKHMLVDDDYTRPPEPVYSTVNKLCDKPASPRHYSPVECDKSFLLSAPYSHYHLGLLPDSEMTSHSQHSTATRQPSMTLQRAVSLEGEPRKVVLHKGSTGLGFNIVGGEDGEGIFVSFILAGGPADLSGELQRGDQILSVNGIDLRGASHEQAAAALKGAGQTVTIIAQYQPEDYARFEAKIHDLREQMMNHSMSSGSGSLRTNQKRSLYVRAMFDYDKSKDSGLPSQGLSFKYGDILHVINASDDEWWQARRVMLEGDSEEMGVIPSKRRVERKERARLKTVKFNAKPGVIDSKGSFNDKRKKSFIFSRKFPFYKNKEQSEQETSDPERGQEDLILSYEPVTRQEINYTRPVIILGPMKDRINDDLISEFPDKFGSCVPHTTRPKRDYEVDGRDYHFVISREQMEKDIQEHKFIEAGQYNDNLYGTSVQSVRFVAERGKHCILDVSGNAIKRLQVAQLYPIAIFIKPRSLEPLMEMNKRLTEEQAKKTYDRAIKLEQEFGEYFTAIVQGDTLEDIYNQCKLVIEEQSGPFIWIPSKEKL
Summary of the method: as §1

[5] = biological target: T5, PDZ protein (GST-PDZ fusion) (Homo sapiens, UniProt Q8IVF5); experiment: G' assay (10 uM PL peptide), results of TABLE 7 and TABLE 12; details: PDZ TIAM-2, PDZ Domain 1
T5 construct: made in house; host or cells: E. coli (DH5alpha, BL21 or JM109)
T5 sequence (Q8IVF5 whole entry, the tested form may be a part): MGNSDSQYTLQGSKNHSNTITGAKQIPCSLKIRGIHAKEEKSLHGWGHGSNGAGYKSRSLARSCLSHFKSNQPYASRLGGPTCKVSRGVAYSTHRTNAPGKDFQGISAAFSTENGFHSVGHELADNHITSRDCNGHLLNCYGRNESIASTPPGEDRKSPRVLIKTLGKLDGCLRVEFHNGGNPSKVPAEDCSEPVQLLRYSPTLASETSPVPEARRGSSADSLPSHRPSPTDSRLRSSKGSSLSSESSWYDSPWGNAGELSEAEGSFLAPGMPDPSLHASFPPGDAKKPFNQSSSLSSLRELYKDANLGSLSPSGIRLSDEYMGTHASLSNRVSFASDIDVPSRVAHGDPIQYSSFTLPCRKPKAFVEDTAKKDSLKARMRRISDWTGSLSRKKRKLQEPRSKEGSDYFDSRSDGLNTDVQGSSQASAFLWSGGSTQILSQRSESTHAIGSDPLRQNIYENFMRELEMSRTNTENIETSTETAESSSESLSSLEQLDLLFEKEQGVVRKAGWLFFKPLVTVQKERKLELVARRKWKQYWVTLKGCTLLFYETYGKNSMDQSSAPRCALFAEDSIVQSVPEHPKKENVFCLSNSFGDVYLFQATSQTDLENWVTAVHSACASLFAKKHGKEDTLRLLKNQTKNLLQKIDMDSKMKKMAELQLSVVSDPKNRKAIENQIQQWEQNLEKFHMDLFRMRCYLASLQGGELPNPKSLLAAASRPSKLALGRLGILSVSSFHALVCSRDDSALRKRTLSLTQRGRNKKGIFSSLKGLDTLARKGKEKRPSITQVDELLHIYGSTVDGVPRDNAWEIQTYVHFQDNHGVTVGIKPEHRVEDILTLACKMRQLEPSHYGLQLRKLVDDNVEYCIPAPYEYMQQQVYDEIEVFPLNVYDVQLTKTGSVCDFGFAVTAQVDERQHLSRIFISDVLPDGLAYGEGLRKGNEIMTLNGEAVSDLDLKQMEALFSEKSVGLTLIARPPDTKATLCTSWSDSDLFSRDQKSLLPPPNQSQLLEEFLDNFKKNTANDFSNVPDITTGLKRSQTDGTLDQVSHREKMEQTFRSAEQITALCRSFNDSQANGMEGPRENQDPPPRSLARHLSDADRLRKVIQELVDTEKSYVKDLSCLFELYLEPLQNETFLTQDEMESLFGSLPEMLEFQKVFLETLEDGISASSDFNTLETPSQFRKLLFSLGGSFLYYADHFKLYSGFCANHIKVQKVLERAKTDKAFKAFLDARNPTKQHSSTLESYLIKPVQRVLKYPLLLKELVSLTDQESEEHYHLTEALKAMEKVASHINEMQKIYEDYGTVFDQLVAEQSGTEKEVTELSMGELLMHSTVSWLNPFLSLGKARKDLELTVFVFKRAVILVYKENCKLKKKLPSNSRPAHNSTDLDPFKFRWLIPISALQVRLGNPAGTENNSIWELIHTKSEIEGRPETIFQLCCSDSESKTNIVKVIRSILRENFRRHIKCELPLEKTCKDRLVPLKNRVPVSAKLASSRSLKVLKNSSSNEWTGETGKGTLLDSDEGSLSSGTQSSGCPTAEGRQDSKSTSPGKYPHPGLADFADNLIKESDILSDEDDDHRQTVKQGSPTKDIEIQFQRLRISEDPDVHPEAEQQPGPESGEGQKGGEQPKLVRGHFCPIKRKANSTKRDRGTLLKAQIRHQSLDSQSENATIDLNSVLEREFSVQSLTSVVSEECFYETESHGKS
Summary of the method: as §2

Mint 1 (PDZ Domain 1, 2) = biological target: T6, Mint 1 (PDZ Domain 1, 2) (Homo sapiens, UniProt Q02410); experiment: G' assay, TABLE 12; details: A450 nm class of biotinylated PL peptide bound; 0 in conc columns = peptide 10 uM, protein 5 ug/ml
T6 construct: When more than one PDZ domain was cloned, the DNA portion cloned represents the PDZ domains and the cDNA portion located between individual domains; made in house; host or cells: E. coli (DH5alpha, BL21 or JM109)
T6 sequence (Q02410 652-828 limits assumed): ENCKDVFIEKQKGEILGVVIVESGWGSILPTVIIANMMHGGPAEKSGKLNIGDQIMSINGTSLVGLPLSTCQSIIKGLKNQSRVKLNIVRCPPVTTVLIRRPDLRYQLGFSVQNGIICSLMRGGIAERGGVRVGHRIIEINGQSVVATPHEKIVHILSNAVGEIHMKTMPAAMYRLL
Summary of the method: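 PL peptide binding to PDZ domain protein, peptide at 10 uM; protein at 5 ug/ml unless another concentration is listed for Kd determination. Bound peptide read at A450 nm and binned into classes 0–5.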

[6] = read-out: Peptide Optimal Conc (Kd by titration of the PL peptide)

Compound: CC[C@H](C)[C@H](NC(=O)[C@H](CCCCN)NC(=O)[C@@H](NC(=O)[C@H](CO)NC(=O)[C@@H]1CCCN1C(=O)[C@H](Cc1ccccc1)NC(=O)[C@@H](NC(=O)[C@@H](NC(=O)[C@H](CCCNC(=N)N)NC(=O)[C@H](CCC(=O)O)NC(=O)[C@H](CC(C)C)NC(=O)[C@H](CC(C)C)NC(=O)[C@H](CC(C)C)NC(=O)[C@@H](NC(=O)CNC(=O)[C@@H](NC(=O)CCCC[C@@H]1SC[C@@H]2NC(=O)N[C@@H]21)C(C)C)[C@@H](C)O)C(C)C)[C@@H](C)CC)C(C)C)C(=O)N[C@@H](C)C(=O)N[C@H](C(=O)N[C@@H](CC(C)C)C(=O)N[C@H](C(=O)O)C(C)C)[C@@H](C)O [Adenovirus E4 Type9]
- Kd ([3]; PDZ DLG1, PDZ Domain 1, Protein Optimal Conc 0.5, read-out: Peptide Optimal Conc (Kd by titration of the PL peptide)): 100 nM
- Kd ([3]; PDZ DLG1, PDZ Domain 2, Protein Optimal Conc 0.3, read-out: Peptide Optimal Conc (Kd by titration of the PL peptide)): 30 nM
- Kd ([4]; Protein Optimal Conc 0.5): 50 nM

Compound: CSCC[C@H](NC(=O)[C@H](C)NC(=O)[C@H](CCCNC(=N)N)NC(=O)CNC(=O)[C@@H](NC(=O)[C@H](Cc1c[nH]c2ccccc12)NC(=O)[C@H](CCCNC(=N)N)NC(=O)CNC(=O)CCCC[C@@H]1SC[C@@H]2NC(=O)N[C@@H]21)[C@@H](C)O)C(=O)N[C@@H](CO)C(=O)N[C@@H](C)C(=O)N[C@@H](Cc1c[nH]c2ccccc12)C(=O)N[C@@H](CCCCN)C(=O)N1CCC[C@H]1C(=O)N[C@H](C(=O)N[C@@H](CCCNC(=N)N)C(=O)N[C@@H](CCCNC(=N)N)C(=O)N[C@@H](CCC(=O)O)C(=O)N[C@H](C(=O)N[C@@H](CCC(=O)O)C(=O)N[C@H](C(=O)O)C(C)C)[C@@H](C)O)[C@@H](C)O [HPV E6 #35 (modified)] (Biotin-GRWTGRAMSAWKPTRRETEV-OH; C-terminus assumed)
- Kd [4, 6]: 200 nM

Compound: CC[C@H](C)[C@H](NC(=O)[C@H](C)NC(=O)[C@H](CC(C)C)NC(=O)[C@H](Cc1c[nH]c2ccccc12)NC(=O)[C@H](Cc1c[nH]cn1)NC(=O)[C@H](CCC(N)=O)NC(=O)[C@H](CC(C)C)NC(=O)[C@H](CCC(N)=O)NC(=O)[C@H](Cc1ccccc1)NC(=O)[C@H](CCC(N)=O)NC(=O)[C@H](CCCNC(=N)N)NC(=O)[C@@H](NC(=O)[C@H](CC(=O)O)NC(=O)[C@H](CCCNC(=N)N)NC(=O)[C@H](CCC(N)=O)NC(=O)[C@H](C)NC(=O)[C@@H](NC(=O)[C@H](CC(C)C)NC(=O)[C@H](Cc1c[nH]cn1)NC(=O)[C@H](Cc1c[nH]cn1)NC(=O)CCCC[C@@H]1SC[C@@H]2NC(=O)N[C@@H]21)C(C)C)[C@@H](C)CC)C(=O)O [noradrenaline transporter] (Biotin-HHLVAQRDIRQFQLQHWLAI-OH; C-terminus assumed)
- Kd ([1]; Peptide Optimal Conc (Kd by titration of the PL peptide)): 1000 nM

Compound: CC(C)C[C@H](NC(=O)[C@H](C)NC(=O)[C@@H](NC(=O)[C@@H](NC(=O)[C@H](Cc1c[nH]cn1)NC(=O)[C@H](CC(C)C)NC(=O)CNC(=O)[C@H](CCC(N)=O)NC(=O)CNC(=O)CNC(=O)[C@H](C)NC(=O)[C@H](C)NC(=O)[C@H](CCCNC(=N)N)NC(=O)[C@H](C)NC(=O)[C@H](CO)NC(=O)[C@H](CC(=O)O)NC(=O)[C@H](CC(=O)O)NC(=O)[C@H](Cc1c[nH]c2ccccc12)NC(=O)[C@H](C)NC(=O)CCCC[C@@H]1SC[C@@H]2NC(=O)N[C@@H]21)C(C)C)[C@@H](C)O)C(=O)O [LPAP] (Biotin-AWDDSARAAGGQGLHVTAL-OH; C-terminus assumed)
- Classification (Mint 1 (PDZ Domain 1, 2)): 1 (A450 nm 0-1)

The next lines start with the values.

- Kd [1, 6]: 900 nM
Compound: CC(C)C[C@H](NC(=O)[C@H](Cc1c[nH]c2ccccc12)NC(=O)[C@H](Cc1c[nH]cn1)NC(=O)[C@H](CCCNC(=N)N)NC(=O)[C@H](CC(C)C)NC(=O)[C@@H](NC(=O)[C@H](Cc1ccccc1)NC(=O)[C@H](CCC(N)=O)NC(=O)[C@H](CCCNC(=N)N)NC(=O)[C@@H](NC(=O)[C@H](CCC(=O)O)NC(=O)CNC(=O)[C@H](CCCNC(=N)N)NC(=O)[C@H](CC(=O)O)NC(=O)[C@@H](NC(=O)[C@H](CC(C)C)NC(=O)[C@H](CCC(=O)O)NC(=O)[C@H](CCCNC(=N)N)NC(=O)CCCC[C@@H]1SC[C@@H]2NC(=O)N[C@@H]21)C(C)C)C(C)C)[C@@H](C)O)C(=O)N[C@@H](CCCCN)C(=O)N[C@H](C(=O)O)C(C)C [Dopamine transporter (Na+-dependent)] (Biotin-RELVDRGEVRQFTLRHWLKV-OH; C-terminus assumed)

- Classification [2]: 1 (A450 nm 0-1)
Compound: A2AA_HUMAN (modified) (Biotin-HDFRRAFKKILARGDRKRIV; not fully specified)

- Classification [5]: 3 (A450 nm 2-3)
Compound: ELLQFCRTPNPALKNGQYWV (Biotin-ELLQFCRTPNPALKNGQYWV)

- Kd ([3]; PDZ DLG1, PDZ Domain 1, 2, titration of the PL peptide, read-out: Peptide Optimal Conc (Kd, dissociation constant)): 5000 nM
Compound: CC[C@H](C)[C@H](NC(=O)[C@H](CCC(=O)O)NC(=O)[C@H](CO)NC(=O)[C@H](CCC(=O)O)NC(=O)[C@H](CCCNC(=N)N)NC(=O)[C@H](CCCNC(=N)N)NC(=O)[C@H](CC(C)C)NC(=O)[C@@H]1CCCN1C(=O)[C@H](CCCNC(=N)N)NC(=O)[C@@H]1CCCN1C(=O)[C@H](CCC(=O)O)NC(=O)[C@H](CC(C)C)NC(=O)[C@@H]1CCCN1C(=O)[C@@H](NC(=O)[C@H](CO)NC(=O)[C@H](C)NC(=O)[C@H](CCC(N)=O)NC(=O)[C@H](CC(N)=O)NC(=O)[C@H](Cc1c[nH]cn1)NC(=O)[C@H](CC(C)C)NC(=O)CCCC[C@@H]1SC[C@@H]2NC(=O)N[C@@H]21)C(C)C)C(=O)O [Kir2.1 (inwardly rect. K+ channel)] (Biotin-LHNQASVPLEPRPLRRESEI-OH; C-terminus assumed)
